From patent US20230278972A1, “SUBSTITUTED HALOALKYL SULFONANILIDE HERBICIDES” (FMC Corporation, priority 2020, published 2023) come the findings set out here.

The subject of assay [1] is Ryegrass, Italian (Italian ryegrass, Lolium multiflorum). The experiment in a line: Test A postemergence, Ryegrass, Italian. It counts as in vivo. Conditions: Lolium multiflorum, post-emergence, 240 h, Postemergence, 0 to 100 scale (0 no effect, 100 complete control); for pest or weed control at 125 g/ha: 125 g ai/ha; for pest or weed control at 500 g/ha: 500 g ai/ha. Put shortly:
(§1)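 Postemergence ratings come from foliar sprays onto one- to two-leaf plants of 2 to 10 cm grown in loam/sand; preemergence ratings come from a directed spray onto the soil of newly seeded pots. Formulation was a surfactant-containing non-phytotoxic solvent blend.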

Assay [2] deals with pigweed (Amaranthus retroflexus). The assay can be described thus: Test A preemergence, pigweed. The following applies: Amaranthus retroflexus, pre-emergence, 240 h; for pest or weed control at 125 g/ha: 125 g ai/ha; for pest or weed control at 500 g/ha: 500 g ai/ha. It counts as in vivo. Put shortly:
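Preemergence: seeded pots of loam plus sand received a directed soil spray. Postemergence: seedlings at one to two leaves, 2 to 10 cm high, were oversprayed. Each compound was formulated in a non-phytotoxic solvent mix that included a surfactant.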

For assay [3], the system named is barnyardgrass (Echinochloa crus-galli). The assay can be described thus: Test B flooded paddy test, barnyardgrass. The following applies: 336 h, read-out: Plant response rating, Barnyardgrass.
Assay [4] has as its system Ryegrass, Italian (Italian ryegrass, Lolium multiflorum). The experiment in a line: Test A preemergence, Ryegrass, Italian. It counts as in vivo. The following applies: Lolium multiflorum, pre-emergence, 240 h, Preemergence; for pest or weed control at 125 g/ha: 125 g ai/ha; for pest or weed control at 500 g/ha: 500 g ai/ha. An outline of the steps: as §1
The subject of the next assay is corn (Zea mays). The experiment in a line: Test A postemergence, corn. It counts as in vivo. Conditions: Zea mays, post-emergence, 240 h, Postemergence, 0 to 100 scale (0 no effect, 100 complete control); for Corn plant response rating (crop injury, 0 = no effect, 100 = complete kill) at 125 g/ha: 125 g ai/ha; for Corn plant response rating (crop injury, 0 = no effect, 100 = complete kill) at 500 g/ha / plant injury at 500 g/ha: 500 g ai/ha; for Corn plant response rating (crop injury, 0 = no effect, 100 = complete kill) at 500 g/ha: visual injury, approx. 10 days; for plant injury at 500 g/ha: visual injury vs untreated controls after approx. 10 days, read-out: Corn plant response rating. Put shortly:
as §1

Where [5] appears, read: visual injury approx. 10 days, read-out: Plant response rating, Ryegrass, Italian.
Setting [6] is: visual injury, approx. 10 days, read-out: Plant response rating, Ryegrass, Italian.
Where [7] appears, read: visual injury on 0 to 100 scale (0 no effect, 100 complete control), approximately 10 days, read-out: Pigweed plant response rating.
Setting [8] is: 0 to 100 scale (0 no effect, 100 complete control), read-out: Plant response rating, Pigweed.
[9] abbreviates: visual injury on 0 to 100 scale (0 no effect, 100 complete control), approximately 10 days, read-out: Ryegrass, Italian plant response rating.
The mark [10] stands for this setting: 0 to 100 scale (0 no effect, 100 complete control), read-out: Plant response rating, Ryegrass, Italian.
The mark [11] stands for this setting: visual injury vs untreated controls after approx. 10 days, read-out: Ryegrass, Italian plant response rating.
Where [12] appears, read: read-out: Plant response rating, Ryegrass, Italian.
[13] abbreviates: visual injury, 0 to 100 scale (0 no effect, 100 complete control), approx. 10 days, read-out: Plant response rating, Pigweed.
Setting [14] is: visual injury, 0 to 100 scale (0 no effect, 100 complete control), approx. 10 days, read-out: Plant response rating, Ryegrass, Italian.

Molecules are shown by their SMILES. Where two headings read alike, the source gives them in different places.

Regarding `Cc1cc(Cl)c(NS(=O)(=O)C(F)(F)F)cc1C(=O)N1CCOCC1` [Compound 16, N-[2-Chloro-4-methyl-5-(4-morpholinylcarbonyl)phenyl]-1,1,1-trifluoromethanesulfonamide], the pest or weed control at 125 g/ha was 50% in assay [1] (setting [5]), 100% in assay [2] (setting [7]) and 90% in assay [4] (setting [9]). Moreover, the pest or weed control at 500 g/ha in assay [1] (setting [6]) was 70%; in assay [2] (setting [8]) it was 100%; in assay [4] (setting [10]), 100%. Moreover, in assay [3], the pest or weed control at 250 g/ha is 25%. In the assay with corn (Zea mays) (visual injury approx. 10 days), this compound gave a Corn plant response rating (crop injury, 0 = no effect, 100 = complete kill) at 125 g/ha of 0%. The compound also returned a Corn plant response rating (crop injury, 0 = no effect, 100 = complete kill) at 500 g/ha with corn (Zea mays) of 50%.

`Cc1cc(Cl)c(NS(=O)(=O)C(F)(F)F)cc1C(=O)N1CCCCC1` [Compound 18, N-[2-Chloro-4-methyl-5-(1-piperidinylcarbonyl)phenyl]-1,1,1-trifluoromethanesulfonamide]: the pest or weed control at 125 g/ha in assay [1] (setting [5]) is 10%; in assay [2] (setting [7]) it was 100%; in assay [4] (setting [9]), 90%. Further, the pest or weed control at 500 g/ha in assay [1] (setting [6]) came out at 40%; in assay [2] (setting [8]) it was 100%; in assay [4] (setting [10]), 90%. Further, the pest or weed control at 250 g/ha in assay [3] worked out at 0%. The compound further registered a Corn plant response rating (crop injury, 0 = no effect, 100 = complete kill) at 125 g/ha in the assay with corn (Zea mays) (visual injury approx. 10 days) of 0%. The same compound displayed a Corn plant response rating (crop injury, 0 = no effect, 100 = complete kill) at 500 g/ha in the assay on corn (Zea mays) of 0%.

Turning to `CCc1cc(-c2cc(NS(=O)(=O)C(F)(F)F)c(C)cc2C)c(=O)n(C)n1` [Compound 34, N-[5-(6-Ethyl-2,3-dihydro-2-methyl-3-oxo-4-pyridazinyl)-2,4-dimethylphenyl]-1,1,1-trifluoromethanesulfonamide], the pest or weed control at 125 g/ha in assay [1] (setting [5]) was 0%; in assay [4] (setting [9]), 30%. The pest or weed control at 500 g/ha in assay [1] (setting [6]) stood at 0%; in assay [4] (setting [10]), 70%. Besides, in assay [3], the pest or weed control at 250 g/ha is 0%. Further, in the assay on corn (Zea mays) (visual injury approx. 10 days), the Corn plant response rating (crop injury, 0 = no effect, 100 = complete kill) at 125 g/ha amounted to 0%. The same compound showed a Corn plant response rating (crop injury, 0 = no effect, 100 = complete kill) at 500 g/ha with corn (Zea mays) of 0%.

As for `Cc1cc(C)c(N(COC(=O)C(C)(C)C)S(=O)(=O)C(F)(F)F)cc1C1=NO[C@@H]2CCC[C@H]12` [Compound 100, [[2,4-Dimethyl-5-[(3aR,6aR)-3a,5,6,6a-tetrahydro-4H-cyclopent[d]isoxazol-3-yl]phenyl][(trifluoromethyl)sulfonyl]amino]methyl 2,2-dimethylpropanoate], the pest or weed control at 125 g/ha was 20% in assay [1] (setting [5]), 70% in assay [2] (setting [7]) and 40% in assay [4] (setting [9]). The pest or weed control at 500 g/ha in assay [1] (setting [11]) turned out to be 40%; in assay [2] (setting [8]), 80%; in assay [4] (setting [10]) it was 70%. In assay [3], the pest or weed control at 250 g/ha amounted to 90%. This compound came in with a Corn plant response rating (crop injury, 0 = no effect, 100 = complete kill) at 125 g/ha with corn (Zea mays) (visual injury approx. 10 days) of 10%. The plant injury at 500 g/ha with corn (Zea mays) was 30%.

Turning to `Cc1cc(C)c(C2=NO[C@@H]3CCC[C@H]23)cc1NS(=O)(=O)C(F)(F)F` [Compound 103, N-[2,4-Dimethyl-5-[(3aR,6aR)-3a,5,6,6a-tetrahydro-4H-cyclopent[d]isoxazol-3-yl]phenyl]-1,1,1-trifluoromethanesulfonamide], the pest or weed control at 125 g/ha in assay [1] (setting [5]) turned out to be 90%; in assay [2] (setting [7]) it was 100%; in assay [4] (setting [9]), 90%. In addition, the pest or weed control at 500 g/ha in assay [1] (setting [11]) was determined as 90%; in assay [2] (setting [8]), 100%; in assay [4] (setting [10]) it was 90%. In addition, in assay [3], the pest or weed control at 250 g/ha was 85%. In addition, the Corn plant response rating (crop injury, 0 = no effect, 100 = complete kill) at 125 g/ha in the assay with corn (Zea mays) (visual injury approx. 10 days) is 20%. For the same compound, the plant injury at 500 g/ha with corn (Zea mays) was found to be 70%.

`Cc1cc(C)c(C2=NOC3CCOCC23)cc1NS(=O)(=O)C(F)(F)F` (stereo not drawn) [Compound 120, N-[2,4-Dimethyl-5-(3a,6,7,7a-tetrahydro-4H-pyrano[3,4-d]isoxazol-3-yl)phenyl]-1,1,1-trifluoromethanesulfonamide]: the pest or weed control at 125 g/ha in assay [1] (setting [5]) came to 90%; in assay [4] (setting [9]), 100%. Also, the results for the pest or weed control at 500 g/ha in assay [1] (setting [11]) and in assay [4] (setting [10]) were 80% and 100%, respectively. Besides, in assay [3], the pest or weed control at 250 g/ha was 0%. Also, the Corn plant response rating (crop injury, 0 = no effect, 100 = complete kill) at 125 g/ha in the assay on corn (Zea mays) (visual injury approx. 10 days) amounted to 0%. For the same compound, the plant injury at 500 g/ha with corn (Zea mays) was found to be 70%.

For the compound `Cc1cc(C)c(N(COC(=O)C(C)(C)C)S(=O)(=O)C(F)(F)F)cc1C1=NOC2(CCCC2)C1` [Compound 140, [[2,4-Dimethyl-5-(1-oxa-2-azaspiro[4.4]non-2-en-3-yl)phenyl][(trifluoromethyl)sulfonyl]amino]methyl 2,2-dimethylpropanoate], the pest or weed control at 125 g/ha in assay [1] (setting [12]), in assay [2] (setting [7]) and in assay [4] (setting [9]) was 0% in each case. Also, the pest or weed control at 500 g/ha in assay [1] (setting [11]) turned out to be 20%; in assay [2] (setting [8]), 50%; in assay [4] (setting [10]), 100%. Besides, the pest or weed control at 250 g/ha in assay [3] came to 95%. For the same compound, in the assay on corn (Zea mays) (visual injury approx. 10 days), the Corn plant response rating (crop injury, 0 = no effect, 100 = complete kill) at 125 g/ha was found to be 0%. For the same compound, in the assay with corn (Zea mays), the plant injury at 500 g/ha came to 30%.

Consider `Cc1cc(C)c(N(COC(=O)C(C)(C)C)S(=O)(=O)C(F)(F)F)cc1C1=NOC2(CCCCC2)C1` [Compound 159, [[2,4-Dimethyl-5-(1-oxa-2-azaspiro[4.5]dec-2-en-3-yl)phenyl][(trifluoromethyl)sulfonyl]amino]methyl 2,2-dimethylpropanoate], for which the pest or weed control at 125 g/ha in assay [1] (setting [12]) and in assay [4] (setting [9]) was 0% throughout. For the same compound, the pest or weed control at 500 g/ha in assay [1] (setting [11]) came out at 0%; in assay [4] (setting [10]), 30%. Besides, the pest or weed control at 250 g/ha in assay [3] is 65%. Also, the Corn plant response rating (crop injury, 0 = no effect, 100 = complete kill) at 125 g/ha in the assay with corn (Zea mays) was determined as 0%. Also, in the assay with corn (Zea mays), the plant injury at 500 g/ha came to 30%.

For `Cc1cc(C)c(C2=NOC3(CCCCC3)C2)cc1NS(=O)(=O)C(F)(F)F` [Compound 197, N-[2,4-Dimethyl-5-(1-oxa-2-azaspiro[4.5]dec-2-en-3-yl)phenyl]-1,1,1-trifluoromethanesulfonamide], the pest or weed control at 125 g/ha in assay [1] (setting [12]) is 50%; in assay [2] (setting [13]) it was 80%; in assay [4] (setting [14]), 100%. Besides, the pest or weed control at 500 g/ha was 60% in assay [1] (setting [11]), 100% in assay [2] (setting [8]) and 100% in assay [4] (setting [10]). For the same compound, the pest or weed control at 250 g/ha in assay [3] turned out to be 95%. Further, in the assay on corn (Zea mays), the Corn plant response rating (crop injury, 0 = no effect, 100 = complete kill) at 125 g/ha turned out to be 20%. In addition, in the assay on corn (Zea mays), the plant injury at 500 g/ha was 80%.

Take `Cc1cc(C)c(C2=NOC3(CCCC3)C2)cc1NS(=O)(=O)C(F)(F)F` [Compound 207, N-[2,4-Dimethyl-5-(1-oxa-2-azaspiro[4.4]non-2-en-3-yl)phenyl]-1,1,1-trifluoromethanesulfonamide]: the pest or weed control at 125 g/ha in assay [1] (setting [12]) stood at 40%; in assay [2] (setting [13]), 100%; in assay [4] (setting [14]) it was 90%. For the same compound, the pest or weed control at 500 g/ha in assay [1] (setting [11]) is 90%; in assay [2] (setting [8]), 100%; in assay [4] (setting [10]) it was 100%. Further, the pest or weed control at 250 g/ha in assay [3] worked out at 75%. The Corn plant response rating (crop injury, 0 = no effect, 100 = complete kill) at 125 g/ha with corn (Zea mays) was 20%. Moreover, the plant injury at 500 g/ha in the assay with corn (Zea mays) was 70%.

With `Cc1cc(Cl)c(NS(=O)(=O)C(F)(F)F)cc1C(=O)N1CCC(F)(F)CC1` [Compound 229, N-[2-Chloro-5-[(4,4-difluoro-1-piperidinyl)carbonyl]-4-methylphenyl]-1,1,1-trifluoromethanesulfonamide], the pest or weed control at 125 g/ha worked out at 30% in assay [1] (setting [12]), 100% in assay [2] (setting [13]) and 60% in assay [4] (setting [14]). The figures for the pest or weed control at 500 g/ha in assay [1] (setting [11]), in assay [2] (setting [7]) and in assay [4] (setting [9]) were 70%, 100% and 90%, respectively. Moreover, in assay [3], the pest or weed control at 250 g/ha was found to be 10%. The same compound yielded a Corn plant response rating (crop injury, 0 = no effect, 100 = complete kill) at 125 g/ha in the assay on corn (Zea mays) of 20%. Moreover, in the assay on corn (Zea mays), the plant injury at 500 g/ha was 70%.
